Holding throughout (type): binding
The target of one assay is HLA-A*68:01 (Homo sapiens, UniProt P04439, A269V/D185E/E176V/E277Q/E87N/F33Y/G231S/I121M/I166T/I218V/L180W/L300P/L318F/N151K/P208A/P217A/Q86R/R169H/T345S). Particulars: duplicated experiments, positive binder >40%.
For a further assay, the target named is HLA-B*58:01 (Homo sapiens, UniProt P01889, A329T/C349S/D201E/D98Y/E176V/E187L/E204Q/E69T/G107R/I218V/I90N/K202T/L105A/L119I/N104I/N87E/Q89R/Q94S/R106L/R155S/R180L/R86G/S101N/S121R/S35A/S48A/T118I/V127L/V306I/V36M/Y140S/Y91M). Particulars: duplicated experiments, positive binder >40%.
The next assay addresses HLA-C*07:01 (Homo sapiens, UniProt P10321, K90N/S123Y). Particulars: duplicated experiments, positive binder >40%.
In another assay the target is HLA-A*02:01 (Homo sapiens, UniProt P04439, D140Y/D185E/D98H/E176V/E277Q/G131W/G231S/I119V/I121R/I166T/I218V/L300P/L318F/N151K/N90K/P208A/P217A/Q86G/Q94H/R138H/R169H/T345S).
The target of the next assay is HLA-B*07:02 (Homo sapiens, UniProt P01889). Particulars: percent relative the binding of positive control peptide […]; duplicated experiments; positive binder >40%.
The next assay addresses HLA-A*24:02 (Homo sapiens, UniProt P04439, D101N/D140Y/D185E/E176V/E190D/F33S/G103R/G107R/I119L/I121M/I306V/K335N/L105A/L180Q/L300P/N151K/N90K/Q86E/Q94H/R106L/R138H/R89G/T104I/T345S/V100E/W191G/Y123F). Conditions: duplicated experiments, positive binder >40%.
A further assay has as its target HLA-A*30:01 (Homo sapiens, UniProt P04439, D140H/D185E/E176W/F33S/G80R/H175R/K168Q/R138E/R41S). Conditions: duplicated experiments, positive binder >40%.
For the next assay, the target named is HLA-A*30:02 (Homo sapiens, UniProt P04439, D101N/D140H/D185E/E176R/F33S/G80R/H175R/K168Q/Q94H/R138E/R41S/V100E). Conditions: duplicated experiments, positive binder >40%.
The mark [1] stands for this setting: percent relative the binding of positive control peptide […].
Where [2] appears, read: percent relative the binding of positive control peptide […], plate-bound monomer 0.5 µg/ml, duplicated experiments, positive binder >40%.

Where two headings read alike, the source gives them in different places.

As to SALLDPSQG, the “Bind A*68:01” value at HLA-A*68:01 (setting [1]) is given as 0%. Besides, the “Bind B*58:01” value on HLA-B*58:01 (setting [1]) came to 8%. For the same substance, the “Bind C*07:01” value on HLA-C*07:01 (setting [1]) turned out to be 9%. The “Bind A*02:01” value at HLA-A*02:01 (setting [2]) amounted to 0%. Also, the “Bind B*07:02” value at HLA-B*07:02 is 3%. The “Bind A*24:02” value at HLA-A*24:02 (setting [1]) amounted to 0%. Also, the “Bind A*30:01” value at HLA-A*30:01 (setting [1]) is 12%. The “Bind A*30:02” value on HLA-A*30:02 (setting [1]) is 62%.
Turning to VMPVGGQSS, on HLA-A*68:01 (setting [1]), the “Bind A*68:01” value was 0%. Further, on HLA-B*58:01 (setting [1]), the “Bind B*58:01” value came out at 0%. In addition, the “Bind C*07:01” value on HLA-C*07:01 (setting [1]) was 0%. The “Bind A*02:01” value at HLA-A*02:01 (setting [2]) came to 60%. Also, the “Bind B*07:02” value at HLA-B*07:02 was 0%. Further, the “Bind A*24:02” value at HLA-A*24:02 (setting [1]) was 0%. The “Bind A*30:01” value on HLA-A*30:01 (setting [1]) is on record as 0%. For the same substance, at HLA-A*30:02 (setting [1]), the “Bind A*30:02” value was determined as 12%.
In the case of AGSSAMILA, the “Bind A*68:01” value at HLA-A*68:01 (setting [1]) came to 2%. Further, on HLA-B*58:01 (setting [1]), the “Bind B*58:01” value was 12%. Further, the “Bind C*07:01” value on HLA-C*07:01 (setting [1]) is 14%. Moreover, on HLA-A*02:01 (setting [2]), the “Bind A*02:01” value worked out at 56%. Also, the “Bind B*07:02” value on HLA-B*07:02 worked out at 10%. At HLA-A*24:02 (setting [1]), the “Bind A*24:02” value amounted to 0%. Besides, the “Bind A*30:01” value on HLA-A*30:01 (setting [1]) was determined as 0%. Moreover, the “Bind A*30:02” value on HLA-A*30:02 (setting [1]) turned out to be 0%.
Take LLDGLRAQD: the “Bind A*68:01” value on HLA-A*68:01 (setting [1]) was found to be 16%. Further, the “Bind B*58:01” value at HLA-B*58:01 (setting [1]) was 0%. For the same substance, the “Bind C*07:01” value on HLA-C*07:01 (setting [1]) came out at 0%. Besides, the “Bind A*02:01” value on HLA-A*02:01 (setting [2]) was 63%. Also, the “Bind B*07:02” value at HLA-B*07:02 is recorded as 0%. Moreover, the “Bind A*24:02” value on HLA-A*24:02 (setting [1]) is 0%. Further, on HLA-A*30:01 (setting [1]), the “Bind A*30:01” value is reported as 8%. At HLA-A*30:02 (setting [1]), the “Bind A*30:02” value is recorded as 140%.
Turning to MW GPSSDPA, the “Bind A*68:01” value at HLA-A*68:01 (setting [1]) is given as 7%. Further, the “Bind B*58:01” value on HLA-B*58:01 (setting [1]) is given as 0%. Besides, the “Bind C*07:01” value at HLA-C*07:01 (setting [1]) is 0%. Moreover, the “Bind A*02:01” value on HLA-A*02:01 (setting [2]) came out at 6%. At HLA-B*07:02, the “Bind B*07:02” value is 3%. The “Bind A*24:02” value on HLA-A*24:02 (setting [1]) worked out at 24%. The “Bind A*30:01” value at HLA-A*30:01 (setting [1]) turned out to be 0%. In addition, the “Bind A*30:02” value on HLA-A*30:02 (setting [1]) was 74%.
Consider SPAVYLLDG, for which the “Bind A*68:01” value on HLA-A*68:01 (setting [1]) came out at 0%. Besides, the “Bind B*58:01” value at HLA-B*58:01 (setting [1]) came out at 0%. In addition, at HLA-C*07:01 (setting [1]), the “Bind C*07:01” value was found to be 1%. Also, the “Bind A*02:01” value on HLA-A*02:01 (setting [2]) was 0%. Also, on HLA-B*07:02, the “Bind B*07:02” value came to 0%. The “Bind A*24:02” value on HLA-A*24:02 (setting [1]) is 49%. In addition, the “Bind A*30:01” value on HLA-A*30:01 (setting [1]) stood at 0%. Moreover, the “Bind A*30:02” value at HLA-A*30:02 (setting [1]) was 0%.
Turning to AGGYKAADM, the “Bind A*68:01” value on HLA-A*68:01 (setting [1]) was 0%. The “Bind B*58:01” value at HLA-B*58:01 (setting [1]) amounted to 0%. At HLA-C*07:01 (setting [1]), the “Bind C*07:01” value was found to be 0%. The “Bind A*02:01” value on HLA-A*02:01 (setting [2]) is recorded as 0%. Besides, on HLA-B*07:02, the “Bind B*07:02” value amounted to 0%. Besides, the “Bind A*24:02” value at HLA-A*24:02 (setting [1]) was 0%. The “Bind A*30:01” value at HLA-A*30:01 (setting [1]) was 0%. On HLA-A*30:02 (setting [1]), the “Bind A*30:02” value was 85%.
Take ATELNNALQ [Rv3875_62–70]: on HLA-A*68:01 (percent relative the binding of positive control peptide KTGGPIYKR), the “Bind A*68:01” value was 5%. The “Bind B*58:01” value on HLA-B*58:01 (percent relative the binding of positive control peptide IAMESIVIW) is given as 4%. Further, on HLA-C*07:01 (percent relative the binding of positive control peptide KYFDEHYEY), the “Bind C*07:01” value was determined as 8%. In addition, the “Bind A*02:01” value at HLA-A*02:01 (percent relative the binding of positive control peptide FLPSDFFPSV, plate-bound monomer 0.5 µg/ml, duplicated experiments, positive binder >40%) amounted to 8%. Also, the “Bind B*07:02” value at HLA-B*07:02 stood at 12%. Besides, on HLA-A*24:02 (percent relative the binding of positive control peptide RYLKDQQLL), the “Bind A*24:02” value came to 13%. Moreover, the “Bind A*30:01” value on HLA-A*30:01 (percent relative the binding of positive control peptide KTKDIVNGL) was found to be 16%. Besides, the “Bind A*30:02” value on HLA-A*30:02 (percent relative the binding of positive control peptide KIQNFRVYY) was found to be 45%.
In the case of SLIGLAMGD, the “Bind A*68:01” value at HLA-A*68:01 (setting [1]) was found to be 0%. At HLA-B*58:01 (setting [1]), the “Bind B*58:01” value was 0%. The “Bind C*07:01” value on HLA-C*07:01 (setting [1]) worked out at 0%. The “Bind A*02:01” value at HLA-A*02:01 was 57. Moreover, the “Bind B*07:02” value on HLA-B*07:02 is on record as 3%. For the same substance, the “Bind A*24:02” value at HLA-A*24:02 (setting [1]) was 0%. In addition, the “Bind A*30:01” value on HLA-A*30:01 (setting [1]) is 0%. In addition, the “Bind A*30:02” value at HLA-A*30:02 (setting [1]) is 47%.
In the case of FLENFVRSS, on HLA-A*68:01 (setting [1]), the “Bind A*68:01” value is given as 7%. For the same substance, the “Bind B*58:01” value at HLA-B*58:01 (setting [1]) is 0%. The “Bind C*07:01” value at HLA-C*07:01 (setting [1]) is 5%. The “Bind A*02:01” value at HLA-A*02:01 (setting [2]) was 77%. Moreover, on HLA-B*07:02, the “Bind B*07:02” value was found to be 0%. The “Bind A*24:02” value on HLA-A*24:02 (setting [1]) was 5%. Further, at HLA-A*30:01 (setting [1]), the “Bind A*30:01” value was determined as 0%. The “Bind A*30:02” value at HLA-A*30:02 (setting [1]) was 0%.
For GLSMAGSSA, the “Bind A*68:01” value on HLA-A*68:01 (setting [1]) is recorded as 0%. Moreover, the “Bind B*58:01” value at HLA-B*58:01 (setting [1]) was found to be 0%. Moreover, the “Bind C*07:01” value at HLA-C*07:01 (setting [1]) is reported as 0%. The “Bind A*02:01” value on HLA-A*02:01 (setting [2]) was 75%. Moreover, the “Bind B*07:02” value at HLA-B*07:02 is 31%. Besides, the “Bind A*24:02” value on HLA-A*24:02 (setting [1]) was found to be 0%. The “Bind A*30:01” value on HLA-A*30:01 (setting [1]) is 0%. For the same substance, the “Bind A*30:02” value on HLA-A*30:02 (setting [1]) was 0%.

Source of the values: paper PMC3608651, “A Broad Profile of Co-Dominant Epitopes Shapes the Peripheral Mycobacterium tuberculosis Specific CD8+ T-Cell Immune Response in South African Patients with Active Tuberculosis” (PLoS ONE, 2013).
